Assay results reported in patent publication US20040156869A1, “2-substituted quinazolin-4-ylamine analogues” (Neurogen Corporation, priority 2002, published 2004).
pKi: −log10 of the molar value.

target: human capsaicin receptor (VR1) (Homo sapiens, UniProt Q8NER1); test: Capsaicin receptor binding assay ([3H]RTX competition, VR1-transfected HEK293 membranes); conditions: not given
Sequence (Q8NER1 whole entry): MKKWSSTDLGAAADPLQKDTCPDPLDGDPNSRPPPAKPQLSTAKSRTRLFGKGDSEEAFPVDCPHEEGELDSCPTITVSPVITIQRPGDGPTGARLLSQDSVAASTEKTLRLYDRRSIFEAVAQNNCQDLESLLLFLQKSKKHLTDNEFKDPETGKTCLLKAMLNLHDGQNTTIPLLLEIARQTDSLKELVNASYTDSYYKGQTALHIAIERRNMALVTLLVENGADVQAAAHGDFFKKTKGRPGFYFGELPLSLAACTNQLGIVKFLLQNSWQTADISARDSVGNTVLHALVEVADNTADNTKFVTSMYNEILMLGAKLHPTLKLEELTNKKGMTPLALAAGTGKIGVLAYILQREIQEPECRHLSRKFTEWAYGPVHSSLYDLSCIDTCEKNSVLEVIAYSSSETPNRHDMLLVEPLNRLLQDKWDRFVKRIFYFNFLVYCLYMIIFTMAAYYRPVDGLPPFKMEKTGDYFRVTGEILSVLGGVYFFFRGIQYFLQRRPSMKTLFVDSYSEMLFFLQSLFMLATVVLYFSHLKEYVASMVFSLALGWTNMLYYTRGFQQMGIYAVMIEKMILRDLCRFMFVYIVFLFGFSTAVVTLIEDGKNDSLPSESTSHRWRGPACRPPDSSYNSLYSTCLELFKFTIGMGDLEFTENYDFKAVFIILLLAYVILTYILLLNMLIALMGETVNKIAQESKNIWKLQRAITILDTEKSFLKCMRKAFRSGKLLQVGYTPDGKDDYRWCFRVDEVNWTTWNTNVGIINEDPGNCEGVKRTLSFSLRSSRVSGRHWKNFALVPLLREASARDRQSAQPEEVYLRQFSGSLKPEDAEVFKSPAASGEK

pKi, > 6.00:
CC(C)CNCc1nc(Nc2ccc(C(F)(F)F)cc2)c2ccc(-c3ncccc3C(F)(F)F)cc2n1 [Compound 536, [2-(Isobutylamino-methyl)-7-(3-trifluoromethyl-pyridin-2-yl)-quinazolin-4-yl]-(4-trifluoromethyl-phenyl)-amine]
CC(C)CCNCc1nc(Nc2ccc(C(F)(F)F)cc2)c2ccc(-c3ncccc3C(F)(F)F)cc2n1 [Compound 537, [2-[(3-Methyl-butylamino)-methyl]-7-(3-trifluoromethyl-pyridin-2-yl)-quinazolin-4-yl]-(4-trifluoromethyl-phenyl)-amine]
CCCCCCNCc1nc(Nc2ccc(C(F)(F)F)cc2)c2ccc(-c3ncccc3C(F)(F)F)cc2n1 [Compound 539, [2-Hexylaminomethyl-7-(3-trifluoromethyl-pyridin-2-yl)-quinazolin-4-yl]-(4-trifluoromethyl-phenyl)-amine]
CCCCCCCCNCc1nc(Nc2ccc(C(F)(F)F)cc2)c2ccc(-c3ncccc3C(F)(F)F)cc2n1 [Compound 540, [2-Octylaminomethyl-7-(3-trifluoromethyl-pyridin-2-yl)-quinazolin-4-yl]-(4-trifluoromethyl-phenyl)-amine]
FC(F)(F)c1ccc(Nc2nc(CN3CCOCC3)nc3cc(-c4ncccc4C(F)(F)F)cnc23)cn1 [Compound 542, [2-Morpholin-4-ylmethyl-7-(3-trifluoromethyl-pyridin-2-yl)-pyrido[3,2-d]pyrimidin-4-yl]-(6-trifluoromethyl-pyridin-3-yl)-amine]
FC(F)(F)c1ccc(Nc2nc(-c3ccc(N4CCCC4)nc3)nc3cc(-c4ncccc4C(F)(F)F)ccc23)cc1 [Compound 543, [2-(6-Pyrrolidin-1-yl-pyridin-3-yl)-7-(3-trifluoromethyl-pyridin-2-yl)-quinazolin-4-yl]-(4-trifluoromethyl-phenyl)-amine]
CC1CN(CCCc2nc(Nc3ccc(C(F)(F)F)nc3)c3ccc(-c4ncccc4C(F)(F)F)cc3n2)CC(C)O1 (stereo not shown) [Compound 544, [2-[3-(2,6-Dimethyl-morpholin-4-yl)-propyl]-7-(3-trifluoromethyl-pyridin-2-yl)-quinazolin-4-yl]-(6-trifluoromethyl-pyridin-3-yl)-amine]
FC(F)(F)c1cccc(Nc2nc(CN3CCOCC3)nc3cc(-c4ncccc4C(F)(F)F)cnc23)n1 [Compound 545, [2-Morpholin-4-ylmethyl-7-(3-trifluoromethyl-pyridin-2-yl)-pyrido[3,2-d]pyrimidin-4-yl]-(6-trifluoromethyl-pyridin-2-yl)-amine]
C[C@@H]1CN(Cc2nc(Nc3ccc(C(F)(F)F)cc3)c3ncc(-c4ncccc4C(F)(F)F)cc3n2)C[C@H](C)O1 [Compound 546, [2-(2,6-Dimethyl-morpholin-4-ylmethyl)-7-(3-trifluoromethyl-pyridin-2-yl)-pyrido[3,2-d]pyrimidin-4-yl]-(4-trifluoromethyl-phenyl)-amine (cis)]
C[C@@H]1CN(Cc2nc(Nc3ccc(C(F)(F)F)nc3)c3ncc(-c4ncccc4C(F)(F)F)cc3n2)C[C@H](C)O1 [Compound 547, [2-(2,6-Dimethyl-morpholin-4-ylmethyl)-7-(3-trifluoromethyl-pyridin-2-yl)-pyrido[3,2-d]pyrimidin-4-yl]-(6-trifluoromethyl-pyridin-3-yl)-amine (cis)]
FC(F)(F)c1ccc(Nc2nc(CN3CCSCC3)nc3cc(-c4ncccc4C(F)(F)F)ccc23)cc1 [Compound 548, [2-Thiomorpholin-4-ylmethyl-7-(3-trifluoromethyl-pyridin-2-yl)-quinazolin-4-yl]-(4-trifluoromethyl-phenyl)-amine]
CC1(C)CCCN(Cc2nc(Nc3ccc(C(F)(F)F)cc3)c3ccc(-c4ncccc4C(F)(F)F)cc3n2)C1 [Compound 549, [2-(3,3-Dimethyl-piperidin-1-ylmethyl)-7-(3-trifluoromethyl-pyridin-2-yl)-quinazolin-4-yl]-(4-trifluoromethyl-phenyl)-amine]
CCCN(CCC)Cc1nc(Nc2ccc(C(F)(F)F)cc2)c2ccc(-c3ncccc3C(F)(F)F)cc2n1 [Compound 550, [2-Dipropylaminomethyl-7-(3-trifluoromethyl-pyridin-2-yl)-quinazolin-4-yl]-(4-trifluoromethyl-phenyl)-amine]
CCCN(Cc1nc(Nc2ccc(C(F)(F)F)cc2)c2ccc(-c3ncccc3C(F)(F)F)cc2n1)CC1CC1 [Compound 551, [2-[(Cyclopropylmethyl-propyl-amino)-methyl]-7-(3-trifluoromethyl-pyridin-2-yl)-quinazolin-4-yl]-(4-trifluoromethyl-phenyl)-amine]
CC1CC(C)CN(Cc2nc(Nc3ccc(C(F)(F)F)cc3)c3ccc(-c4ncccc4C(F)(F)F)cc3n2)C1 (stereo not shown) [Compound 552, [2-(3,5-Dimethyl-piperidin-1-ylmethyl)-7-(3-trifluoromethyl-pyridin-2-yl)-quinazolin-4-yl]-(4-trifluoromethyl-phenyl)-amine]
O=S1(=O)CCN(Cc2nc(Nc3ccc(C(F)(F)F)nc3)c3ccc(-c4ncccc4C(F)(F)F)cc3n2)CC1 [Compound 553, [2-(1,1-dioxo-1λ^6-thiomorpholin-4-ylmethyl)-7-(3-trifluoromethyl-pyridin-2-yl)-quinazolin-4-yl]-(6-trifluoromethyl-pyridin-3-yl)-amine]
FC(F)(F)c1ccc(Nc2nc(CNC3CCSCC3)nc3cc(-c4ncccc4C(F)(F)F)ccc23)cn1 [Compound 554, [2-[(Tetrahydro-thiopyran-4-ylamino)-methyl]-7-(3-trifluoromethyl-pyridin-2-yl)-quinazolin-4-yl]-(6-trifluoromethyl-pyridin-3-yl)-amine]
FC(F)(F)c1ccc(Nc2nc(CN3CCSCC3)nc3cc(-c4ncccc4C(F)(F)F)ccc23)cn1 [Compound 555, [2-Thiomorpholin-4-ylmethyl-7-(3-trifluoromethyl-pyridin-2-yl)-quinazolin-4-yl]-(6-trifluoromethyl-pyridin-3-yl)-amine]
CC1(C)CCCN(Cc2nc(Nc3ccc(C(F)(F)F)nc3)c3ccc(-c4ncccc4C(F)(F)F)cc3n2)C1 [Compound 556, [2-(3,3-Dimethyl-piperidin-1-ylmethyl)-7-(3-trifluoromethyl-pyridin-2-yl)-quinazolin-4-yl]-(6-trifluoromethyl-pyridin-3-yl)-amine]
FC(F)(F)c1ccc(Nc2nc(CNCc3ccccc3)nc3cc(-c4ncccc4C(F)(F)F)ccc23)nc1 [Compound 560, [2-(Benzylamino-methyl)-7-(3-trifluoromethyl-pyridin-2-yl)-quinazolin-4-yl]-(5-trifluoromethyl-pyridin-2-yl)-amine]
CC1CN(CCc2nc(Nc3ccc(C(F)(F)F)cc3)c3ccc(-c4ncccc4C(F)(F)F)cc3n2)CC(C)O1 (stereo not shown) [Compound 561, [2-[2-(2,6-Dimethyl-morpholin-4-yl)-ethyl]-7-(3-trifluoromethyl-pyridin-2-yl)-quinazolin-4-yl]-(4-trifluoromethyl-phenyl)-amine]
O=CN1CCN(CCc2nc(Nc3ccc(C(F)(F)F)cc3)c3ccc(-c4ncccc4C(F)(F)F)cc3n2)CC1 [Compound 562, 4-{2-[4-(4-Trifluoromethyl-phenylamino)-7-(3-trifluoromethyl-pyridin-2-yl)-quinazolin-2-yl]-ethyl}-piperazine-1-carbaldehyde]
OCCC1CCN(CCCc2nc(Nc3ccc(C(F)(F)F)cc3)c3ccc(-c4ncccc4C(F)(F)F)cc3n2)CC1 [Compound 568, 2-(1-{3-[4-(4-Trifluoromethyl-phenylamino)-7-(3-trifluoromethyl-pyridin-2-yl)-quinazolin-2-yl]-propyl}-piperidin-4-yl)-ethanol]
OCC1CCN(CCCc2nc(Nc3ccc(C(F)(F)F)cc3)c3ccc(-c4ncccc4C(F)(F)F)cc3n2)CC1 [Compound 569, (1-{3-[4-(4-Trifluoromethyl-phenylamino)-7-(3-trifluoromethyl-pyridin-2-yl)-quinazolin-2-yl]-propyl}-piperidin-4-yl)-methanol]
OC1CCN(CCCc2nc(Nc3ccc(C(F)(F)F)cc3)c3ccc(-c4ncccc4C(F)(F)F)cc3n2)CC1 [Compound 570]
OC1CCCN(CCCc2nc(Nc3ccc(C(F)(F)F)cc3)c3ccc(-c4ncccc4C(F)(F)F)cc3n2)C1 (stereo not shown) [Compound 571, 1-{3-[4-(4-Trifluoromethyl-phenylamino)-7-(3-trifluoromethyl-pyridin-2-yl)-quinazolin-2-yl]-propyl}piperidin-3-ol]
CC1CCCN(CCCc2nc(Nc3ccc(C(F)(F)F)cc3)c3ccc(-c4ncccc4C(F)(F)F)cc3n2)C1 (stereo not shown) [Compound 572, [2-[3-(3-Methyl-piperidin-1-yl)-propyl]-7-(3-trifluoromethyl-pyridin-2-yl)-quinazolin-4-yl]-(4-trifluoromethyl-phenyl)-amine]
CN1CCN(CCCc2nc(Nc3ccc(C(F)(F)F)cc3)c3ccc(-c4ncccc4C(F)(F)F)cc3n2)CC1 [Compound 573, [2-[3-(4-Methyl-piperazin-1-yl)-propyl]-7-(3-trifluoromethyl-pyridin-2-yl)-quinazolin-4-yl]-(4-trifluoromethyl-phenyl)-amine]

same assay, conditions: Table III; capsaicin receptor binding

pKi, > 6.00:
CCCN(CCC)Cc1nc(Nc2ccc(C(F)(F)F)nc2)c2ccc(-c3ncccc3C(F)(F)F)cc2n1 [Compound 557, [2-Dipropylaminomethyl-7-(3-trifluoromethyl-pyridin-2-yl)-quinazolin-4-yl]-(6-trifluoromethyl-pyridin-3-yl)-amine]
CCCN(Cc1nc(Nc2ccc(C(F)(F)F)nc2)c2ccc(-c3ncccc3C(F)(F)F)cc2n1)CC1CC1 [Compound 558, [2-[(Cyclopropylmethyl-propyl-amino)-methyl]-7-(3-trifluoromethyl-pyridin-2-yl)-quinazolin-4-yl]-(6-trifluoromethyl-pyridin-3-yl)-amine]
CC1CC(C)CN(Cc2nc(Nc3ccc(C(F)(F)F)nc3)c3ccc(-c4ncccc4C(F)(F)F)cc3n2)C1 (stereo not shown) [Compound 559, [2-(3,5-Dimethyl-piperidin-1-ylmethyl)-7-(3-trifluoromethyl-pyridin-2-yl)-quinazolin-4-yl]-(6-trifluoromethyl-pyridin-3-yl)-amine]
